In the supplement of paper PMC10307832:

Key:
Assay in all cases: relative viability (nuclei count vs DMSO), 5 days (fraction); higher = more cells survive
[1] = compound: NCC(=O)Nc1ccc(-n2nc(C(F)(F)F)cc2-c2ccc3c(ccc4ccccc43)c2)cc1 + Cc1cc(Nc2cc(N3CCN(C)CC3)nc(Sc3ccc(NC(=O)C4CC4)cc3)n2)n[nH]1 [Tozasertib] (partner 0.1 µM)
How it was run: (§1)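 Medians of duplicate plates are given as relative viability. That measure is the nuclei count in treated wells divided by the count in vehicle wells. Counts were taken on 4× images of lung cancer cell lines in 1536-well plates, 5 days after pin-tool dosing the day after seeding with one drug alone or a fixed anchor-drug dose plus five library-drug doses (not always all listed) in √10 steps.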

[2] = compound: NCC(=O)Nc1ccc(-n2nc(C(F)(F)F)cc2-c2ccc3c(ccc4ccccc43)c2)cc1 + COc1cc2c(Oc3ccc(NC(=O)C4(C(=O)Nc5ccc(F)cc5)CC4)cc3F)ccnc2cc1OCCCN1CCOCC1 [Foretinib] (partner 0.25 µM)
How it was run: as §1

[3] = compound: C1CSC2=C(C(=O)N1)SC3=C2C=C(C=C3)O [kb NB 142-70] + Nc1nc2[nH]cc(CCc3ccc(C(=O)N[C@@H](CCC(=O)O)C(=O)O)cc3)c2c(=O)[nH]1 [Pemetrexed] (partner 0.2 µM)
How it was run: as §1

[4] = compound: NCC(=O)Nc1ccc(-n2nc(C(F)(F)F)cc2-c2ccc3c(ccc4ccccc43)c2)cc1 + Nc1nc2[nH]cc(CCc3ccc(C(=O)N[C@@H](CCC(=O)O)C(=O)O)cc3)c2c(=O)[nH]1 [Pemetrexed] (partner 0.2 µM)
How it was run: as §1

HCC-827
relative viability ([1]; first compound 0.02 µM): 0.38
relative viability ([1]; first compound 0.06325 µM): 0.437
relative viability ([1]; first compound 0.2 µM): 0.389
relative viability ([1]; first compound 0.6325 µM): 0.427
relative viability ([1]; first compound 2 µM): 0.446
relative viability ([2]; first compound 0.02 µM): 1.1
relative viability ([2]; first compound 0.06325 µM): 1.09
relative viability ([2]; first compound 0.2 µM): 0.98
relative viability ([2]; first compound 0.6325 µM): 0.991
relative viability ([2]; first compound 2 µM): 1.08
relative viability ([3]; first compound 0.1 µM): 0.25
relative viability ([3]; first compound 1 µM): 0.243
relative viability ([3]; first compound 3.162 µM): 0.267
relative viability ([4]; first compound 0.02 µM): 0.217
relative viability ([4]; first compound 0.06325 µM): 0.211
relative viability ([4]; first compound 0.2 µM): 0.277
relative viability ([4]; first compound 0.6325 µM): 0.251
relative viability ([4]; first compound 2 µM): 0.254

SK-LU-1
relative viability ([1]; first compound 0.02 µM): 0.324
relative viability ([1]; first compound 0.06325 µM): 0.335
relative viability ([1]; first compound 0.2 µM): 0.386
relative viability ([1]; first compound 0.6325 µM): 0.346
relative viability ([1]; first compound 2 µM): 0.339
relative viability ([2]; first compound 0.02 µM): 0.845
relative viability ([2]; first compound 0.06325 µM): 0.843
relative viability ([2]; first compound 0.2 µM): 0.97
relative viability ([2]; first compound 0.6325 µM): 0.785
relative viability ([2]; first compound 2 µM): 0.85
relative viability ([3]; first compound 0.1 µM): 0.958
relative viability ([3]; first compound 1 µM): 0.954
relative viability ([3]; first compound 3.162 µM): 0.412
relative viability ([4]; first compound 0.02 µM): 0.992
relative viability ([4]; first compound 0.06325 µM): 0.956
relative viability ([4]; first compound 0.2 µM): 1.11
relative viability ([4]; first compound 0.6325 µM): 0.902
relative viability ([4]; first compound 2 µM): 0.989

NCI-H1975
relative viability ([1]; first compound 0.02 µM): 0.7
relative viability ([1]; first compound 0.06325 µM): 0.841
relative viability ([1]; first compound 0.2 µM): 0.839
relative viability ([1]; first compound 0.6325 µM): 0.726
relative viability ([1]; first compound 2 µM): 0.747
relative viability ([2]; first compound 0.02 µM): 1.03
relative viability ([2]; first compound 0.06325 µM): 0.94
relative viability ([2]; first compound 0.2 µM): 1.08
relative viability ([2]; first compound 0.6325 µM): 1
relative viability ([2]; first compound 2 µM): 0.984
relative viability ([3]; first compound 0.1 µM): 0.259
relative viability ([3]; first compound 1 µM): 0.309
relative viability ([3]; first compound 3.162 µM): 0.239
relative viability ([4]; first compound 0.02 µM): 0.309
relative viability ([4]; first compound 0.06325 µM): 0.293
relative viability ([4]; first compound 0.2 µM): 0.291
relative viability ([4]; first compound 0.6325 µM): 0.282
relative viability ([4]; first compound 2 µM): 0.278

NCI-H1651
relative viability ([1]; first compound 0.02 µM): 0.703
relative viability ([1]; first compound 0.06325 µM): 0.694
relative viability ([1]; first compound 0.2 µM): 0.906
relative viability ([1]; first compound 0.6325 µM): 0.588
relative viability ([1]; first compound 2 µM): 0.676
relative viability ([2]; first compound 0.02 µM): 0.758
relative viability ([2]; first compound 0.06325 µM): 0.823
relative viability ([2]; first compound 0.2 µM): 0.805
relative viability ([2]; first compound 0.6325 µM): 0.789
relative viability ([2]; first compound 2 µM): 0.803
relative viability ([3]; first compound 0.1 µM): 0.598
relative viability ([3]; first compound 1 µM): 0.578
relative viability ([3]; first compound 3.162 µM): 0.552
relative viability ([4]; first compound 0.02 µM): 0.588
relative viability ([4]; first compound 0.06325 µM): 0.34
relative viability ([4]; first compound 0.2 µM): 0.577
relative viability ([4]; first compound 0.6325 µM): 0.603
relative viability ([4]; first compound 2 µM): 0.608

NCI-H441
relative viability ([1]; first compound 0.02 µM): 0.642
relative viability ([1]; first compound 0.06325 µM): 0.522
relative viability ([1]; first compound 0.2 µM): 0.747
relative viability ([1]; first compound 0.6325 µM): 0.603
relative viability ([1]; first compound 2 µM): 0.697
relative viability ([2]; first compound 0.02 µM): 0.91
relative viability ([2]; first compound 0.06325 µM): 1.03
relative viability ([2]; first compound 0.2 µM): 0.879
relative viability ([2]; first compound 0.6325 µM): 0.85
relative viability ([2]; first compound 2 µM): 0.97
relative viability ([3]; first compound 0.1 µM): 0.269
relative viability ([3]; first compound 1 µM): 0.248
relative viability ([3]; first compound 3.162 µM): 0.196
relative viability ([4]; first compound 0.02 µM): 0.253
relative viability ([4]; first compound 0.06325 µM): 0.279
relative viability ([4]; first compound 0.2 µM): 0.273
relative viability ([4]; first compound 0.6325 µM): 0.259
relative viability ([4]; first compound 2 µM): 0.243

LCLC-103H
relative viability ([1]; first compound 0.02 µM): 0.416
relative viability ([1]; first compound 0.06325 µM): 0.477
relative viability ([1]; first compound 0.2 µM): 0.457
relative viability ([1]; first compound 0.6325 µM): 0.471
relative viability ([1]; first compound 2 µM): 0.448
relative viability ([2]; first compound 0.02 µM): 0.703
relative viability ([2]; first compound 0.06325 µM): 0.71
relative viability ([2]; first compound 0.2 µM): 0.938
relative viability ([2]; first compound 0.6325 µM): 0.754
relative viability ([2]; first compound 2 µM): 0.736
relative viability ([3]; first compound 0.1 µM): 0.447
relative viability ([3]; first compound 1 µM): 0.453
relative viability ([3]; first compound 3.162 µM): 0.471
relative viability ([4]; first compound 0.02 µM): 0.406
relative viability ([4]; first compound 0.06325 µM): 0.481
relative viability ([4]; first compound 0.2 µM): 0.434
relative viability ([4]; first compound 0.6325 µM): 0.447
relative viability ([4]; first compound 2 µM): 0.437

LCLC-97TM1
relative viability ([1]; first compound 0.02 µM): 0.228
relative viability ([1]; first compound 0.06325 µM): 0.26
relative viability ([1]; first compound 0.2 µM): 0.234
relative viability ([1]; first compound 0.6325 µM): 0.206
relative viability ([1]; first compound 2 µM): 0.206
relative viability ([2]; first compound 0.02 µM): 0.87
relative viability ([2]; first compound 0.06325 µM): 0.999
relative viability ([2]; first compound 0.2 µM): 0.924
relative viability ([2]; first compound 0.6325 µM): 0.945
relative viability ([2]; first compound 2 µM): 0.96
relative viability ([3]; first compound 0.1 µM): 0.174
relative viability ([3]; first compound 1 µM): 0.186
relative viability ([3]; first compound 3.162 µM): 0.182
relative viability ([4]; first compound 0.02 µM): 0.181
relative viability ([4]; first compound 0.06325 µM): 0.176
relative viability ([4]; first compound 0.2 µM): 0.183
relative viability ([4]; first compound 0.6325 µM): 0.178
relative viability ([4]; first compound 2 µM): 0.135

NCI-H1355
relative viability ([1]; first compound 0.02 µM): 0.558
relative viability ([1]; first compound 0.06325 µM): 0.657
relative viability ([1]; first compound 0.2 µM): 0.574
relative viability ([1]; first compound 0.6325 µM): 0.57
relative viability ([1]; first compound 2 µM): 0.57
relative viability ([2]; first compound 0.02 µM): 0.954
relative viability ([2]; first compound 0.06325 µM): 1.03
relative viability ([2]; first compound 0.2 µM): 1.04
relative viability ([2]; first compound 0.6325 µM): 1.02
relative viability ([2]; first compound 2 µM): 0.981
relative viability ([3]; first compound 0.1 µM): 0.943
relative viability ([3]; first compound 1 µM): 1.06
relative viability ([3]; first compound 3.162 µM): 1.04
relative viability ([4]; first compound 0.02 µM): 1.06
relative viability ([4]; first compound 0.06325 µM): 1.09
relative viability ([4]; first compound 0.2 µM): 1.07
relative viability ([4]; first compound 0.6325 µM): 0.963
relative viability ([4]; first compound 2 µM): 1.02

HOP-62
relative viability ([1]; first compound 0.02 µM): 0.364
relative viability ([1]; first compound 0.06325 µM): 0.409
relative viability ([1]; first compound 0.2 µM): 0.37
relative viability ([1]; first compound 0.6325 µM): 0.409
relative viability ([1]; first compound 2 µM): 0.365
relative viability ([2]; first compound 0.02 µM): 1.19
relative viability ([2]; first compound 0.06325 µM): 1.16
relative viability ([2]; first compound 0.2 µM): 0.966
relative viability ([2]; first compound 0.6325 µM): 1.01
relative viability ([2]; first compound 2 µM): 1.04
relative viability ([3]; first compound 0.1 µM): 0.3
relative viability ([3]; first compound 1 µM): 0.361
relative viability ([3]; first compound 3.162 µM): 0.388
relative viability ([4]; first compound 0.02 µM): 0.334
relative viability ([4]; first compound 0.06325 µM): 0.29
relative viability ([4]; first compound 0.2 µM): 0.3
relative viability ([4]; first compound 0.6325 µM): 0.275
relative viability ([4]; first compound 2 µM): 0.314
